The values below come from article PMC8023712, “Carboxylesterase Activities and Protein Expression in Rabbit and Pig Ocular Tissues” (Molecular Pharmaceutics, 2021).

Each structure is given as a SMILES string.

The test system of data set [1] is CES1 (rabbit ocular tissue homogenates). Put plainly: DME hydrolysis in rabbit ocular tissue homogenates. Particulars: for DME hydrolysis rate: 5 μM DME. The procedure: (§1) The hydrolysis of DME was monitored with slight modifications using the published bioluminescence-based assay[13],[21] where recombinant firefly luciferase enzyme was used to detect the D-luciferin that formed in the reaction mixture. The DME hydrolysis reaction was done in white-coated 96-well plates (Thermo Scientific Sterilin Microtiter Plates). Tissue lysates (5 μg of protein) were preincubated in 0.1 M PBS, pH 6.5. The reaction was initiated by adding DME to a final concentration of 5 μM in a final volume of 200 μL. The hydrolysis of DME was allowed to proceed for 20 min at 37 °C. The formed D-luciferin was quantitated by an injection of 73 μL of the luciferase detection reagent [3 μg of rLuciferase, 50 nmol of ATP, and 50 nmol of MgCl2 in PBS], and the luminescence was measured immediately with a Victor^2 Microplate Reader (560 nm, 1 s). Serial 2-fold dilutions of D-luciferin in 0.1 M PBS, pH 6.5 were used to generate the standard curve (0.156–10 μM).
(§2) Inhibitors were tested at a final concentration range of 0.4–400 μM except for PMSF (0.3–2.5 mM).

Data set [2] has as its system CES1 (pig ocular tissue homogenates). Put plainly: DME hydrolysis in pig ocular tissue homogenates. Particulars: for DME hydrolysis rate: 5 μM DME. The procedure: as §1, §2
In data set [3] the target is T1, CES1 (human liver homogenate) (Homo sapiens, UniProt P23141).
T1 construct: Homogenates for rat whole eye (covered by the license # ESAVI/8621/04.10.07/2017) and human liver; from tissue; host or cells: human liver homogenate (donated, Oulu University Hospital)
Put plainly: DME hydrolysis in human liver homogenate (positive control). The format is in vitro ADME. The conditions noted are these: 5 μM DME. The source says:
(§3) CES enzymes are localized in the endoplasmic reticulum,[2],[45] but some activity resides in the cytoplasm.[46] Therefore, to prevent possible losses during sample preparation, we used whole tissue homogenates to characterize CES expression and activity in ocular tissues. The homogenization of pooled ocular tissues in 1 × DPBS buffer (3:1 v/w) was done with a Dounce homogenizer (Thomas Scientific; Swedesboro, NJ) with 5–10 strokes, depending on the ocular tissue. Aqueous humor and vitreous were homogenized without adding buffer. Tissue homogenization buffer was supplemented with protease inhibitor cocktail without phenylmethylsulfonyl fluoride (PMSF), a known inhibitor of esterases.[47],[48] After homogenization, all samples were sonicated at 750 W (Vibra-Cell VCX50 and a four-element microtip probe; Sonics & Materials Inc., Newton, CT) using four pulses of 45 s with a cooling interval of 15 s. […]
(§4) The hydrolysis of DME was monitored with slight modifications using the published bioluminescence-based assay[13],[21] where recombinant firefly luciferase enzyme was used to detect the D-luciferin that formed in the reaction mixture. […] The formed D-luciferin was quantitated by an injection of 73 μL of the luciferase detection reagent [3 μg of rLuciferase, 50 nmol of ATP, and 50 nmol of MgCl2 in PBS], and the luminescence was measured immediately with a Victor^2 Microplate Reader (560 nm, 1 s).

In data set [4] the test system is CES1 (rat whole eye homogenate). The data set can be described thus: DME hydrolysis in rat whole eye homogenate (positive control). The data set is classed as in vitro ADME. The conditions noted are these: 5 μM DME.
From the text: as §3, §4

For a further data set, the system named is rhCES1. Particulars: read-out: Km literature data, DME; cited from earlier work.
Data set [5] concerns multiple esterases (rabbit ocular tissue homogenates). The data set can be described thus: NPA hydrolysis in rabbit ocular tissue homogenates. The format is in vitro ADME. Particulars: for NPA hydrolysis rate: 400 μM NPA. As for the experimental part:
(§5) NPA hydrolysis was performed with a slight modification to our previous protocol[22] in clear flat-bottom 96-well Thermo Scientific Sterilin Microtiter plates at 37 °C. Diluted ocular samples (8 μg of protein in 80 μL of PBS) were pipetted into the reaction wells, and the background absorbance was measured at 405 nm for 10 min of preincubation. […] Changes in absorbance at 405 nm were recorded with a Victor^2 Microplate Reader (PerkinElmer Wallac 1420, St.

Data set [6] has as its system multiple esterases (pig ocular tissue homogenates). The data set can be described thus: NPA hydrolysis in pig ocular tissue homogenates. The data set is classed as in vitro ADME. Particulars: for NPA hydrolysis rate: 400 μM NPA. As for the experimental part: as §5
The next data set relates to multiple esterases (HLM). Particulars: NPA, read-out: Km literature data; cited from earlier work.
Data set [7] concerns multiple esterases (rabbit cornea). The conditions noted are these: NPA, read-out: Km literature data; cited from earlier work.
For another data set, the system named is pig liver CES1. Particulars: NPA, read-out: Km literature data; cited from earlier work.

T1 sequence (P23141 18-567): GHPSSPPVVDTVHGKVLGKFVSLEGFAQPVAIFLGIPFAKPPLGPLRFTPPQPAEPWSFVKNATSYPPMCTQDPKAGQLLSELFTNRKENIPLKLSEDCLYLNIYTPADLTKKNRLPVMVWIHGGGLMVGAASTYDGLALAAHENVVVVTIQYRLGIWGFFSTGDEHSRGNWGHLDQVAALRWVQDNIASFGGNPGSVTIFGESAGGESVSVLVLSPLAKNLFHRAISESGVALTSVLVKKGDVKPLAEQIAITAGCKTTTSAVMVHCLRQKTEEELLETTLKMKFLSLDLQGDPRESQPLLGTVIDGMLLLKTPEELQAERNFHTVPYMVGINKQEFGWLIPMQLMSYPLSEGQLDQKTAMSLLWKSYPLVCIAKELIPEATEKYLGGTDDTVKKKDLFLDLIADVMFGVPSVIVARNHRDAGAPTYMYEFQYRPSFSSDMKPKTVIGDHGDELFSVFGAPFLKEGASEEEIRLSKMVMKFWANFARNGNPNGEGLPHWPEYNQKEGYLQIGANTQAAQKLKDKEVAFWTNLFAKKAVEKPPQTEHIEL

What is called Km is the concentration of substrate that gives half-maximal velocity. With `COC(=O)[C@H]1CSC(c2nc3ccc(O)cc3s2)=N1` [DME, D-luciferin methyl ester], the DME hydrolysis rate in data set [1] (rabbit RPE and retina) was 0.1 to 0.5 nmol/min/mg; in data set [1] (rabbit aqueous humor and vitreous), 0.5 to 1.0 nmol/min/mg; in [1] (rabbit conjunctiva, cornea and choroid), at least 1 nmol/min/mg; in data set [2] (pig RPE, aqueous humor and vitreous) it was 0.1 to 0.2 nmol/min/mg; in data set [2] (pig conjunctiva, cornea and choroid) it was at least 1 nmol/min/mg; in [2] (pig retina), 0.5 to 1 nmol/min/mg. For the same molecule, the DME hydrolysis rate was 3.6 ± 0.7 nmol/min/mg in [3] and 2.6 ± 0.2 nmol/min/mg in data set [4]. The Km in data set [1] (read-out: Km (this study), DME hydrolysis in rabbit cornea) was 2.5 ± 0.8 µM; in data set [2] (read-out: Km (this study), DME hydrolysis in pig cornea), 2.7 ± 1.3 µM; with rhCES1, about 5 µM.
As for `CC(=O)Oc1ccc([N+](=O)[O-])cc1` [NPA, 4-Nitrophenyl acetate], the Michaelis-Menten constant (Km) in data set [5] (NPA hydrolysis in rabbit cornea, read-out: Km (this study)) is 263 ± 15 µM; in [6] (NPA hydrolysis in pig cornea, read-out: Km (this study)), 125 ± 13 µM; with multiple esterases (HLM), 198 ± 17 µM; in [7], 68 ± 15 µM; with pig liver CES1, 520 ± 60 µM. Moreover, the NPA hydrolysis rate in [5] (rabbit RPE) was 17.5 ± 2.7 nmol/min/mg; in data set [5] (rabbit choroid) it was 81.6 ± 6.8 nmol/min/mg; in data set [5] (rabbit, most ocular tissue homogenates, 37 °C) it was 30–45 nmol/min/mg protein; in data set [6] (pig RPE) it was 8.4 ± 1.0 nmol/min/mg; in data set [6] (pig, all ocular tissues except RPE) it was “around 20 nmol/min/mg”.
